Results published in patent US9556217B2, “Amphiphilic compounds” (WISCONSIN ALUMNI RESEARCH FOUNDATION, priority 2012, dated 2017).

Key:
wild type β2AR (β2AR WT) = target: T1, wild type β2AR (β2AR WT) (Homo sapiens, UniProt P07550); assay: β2AR WT activity after extraction ([3H]-dihydroalprenolol binding); type: biochemical; settings: for β2AR WT initial activity: extracted with 1 wt % or 2 wt % amphiphile; for β2AR WT activity over 72 hours: solubilized samples stored at 4° C.
T1 construct: made in house; host or cells: Sf9 insect cells (baculovirus); lysed cells and membranes extracted directly with amphiphile
Method: In the examples discussed above, conventional detergents such as DDM were used to extract IMPs from the membrane, and then in most cases the solution of detergent-solubilized protein was diluted with amphiphile-containing solutions to evaluate the new agents. With this approach it is possible that the small amount of residual conventional detergent could affect protein stability. To exclude this possibility, GLC-3 and GDN were used to extract wild type β2AR (β2AR WT) (Kobilka, Trends in Pharmacological Sciences 2011, 32, 213-218) from the membrane. Receptor activity was measured via a binding assay involving the antagonist [^3H]-dihydroalprenolol. […] GDN is therefore highly suitable for GPCR extraction.
A gene encoding amino-terminally FLAG epitope tagged β2AR was expressed in Sf9 cells by baculovirus, with no ligand present during culture. Cells were infected at a density of 4×10^6 cells/mL and then cultured for 48 hours prior to harvesting by centrifugation. Cells were resuspended and lysed by osmotic shock with a low ionic strength buffer (20 mM Tris pH 7.5, 1 mM EDTA). The lysed cells were aliquoted 35 mg per aliquot, then frozen. For extraction tests, 300 μL of solubilization buffer (20 mM HEPES pH 7.5, 100 mM NaCl) containing each amphiphile was added to each aliquot, which was then homogenized by pipet followed by grinding with a glass dounce tissue homogenizer. After two-hour incubation at 4° C., samples were centrifuged at maximum speed in a tabletop microcentrifuge to pellet insoluble material. Supernatant was removed and assayed for protein concentration by DC protein assay (Bio-Rad).
The amount of functional receptor was quantified by incubation for 1 hour with 10 nM 3H dihydroalprenolol. Samples were then separated by gel filtration over G-50 resin and radioactivity was quantified by liquid scintillation. Nonspecific binding was measured in the presence of 10 μM alprenolol. Assays were performed in triplicate at time points indicated. G-50 filtration was performed in buffer containing 20 mM HEPES pH 7.5, 100 mM NaCl, 10-fold CMC of the detergent tested. All binding assays were performed with ice cold buffers.

Bacteriorhodopsin (bR) = target: T2, Bacteriorhodopsin (bR) (Halobacterium salinarum, UniProt P02945); assay: Bacteriorhodopsin stability (absorbance at 554 nm); settings: 0.2 wt % OTG+1.6 wt % agent, RT; for Maintaining the native structure of bR compared with conventional detergents: absorbance at 554 nm over 20 days
T2 construct: Frozen aliquots of purple membranes containing bR at 184 μM were thawed at room temperature; endogenous in cells; host or cells: purple membranes (native)
T2 sequence (P02945 14-261 limits assumed): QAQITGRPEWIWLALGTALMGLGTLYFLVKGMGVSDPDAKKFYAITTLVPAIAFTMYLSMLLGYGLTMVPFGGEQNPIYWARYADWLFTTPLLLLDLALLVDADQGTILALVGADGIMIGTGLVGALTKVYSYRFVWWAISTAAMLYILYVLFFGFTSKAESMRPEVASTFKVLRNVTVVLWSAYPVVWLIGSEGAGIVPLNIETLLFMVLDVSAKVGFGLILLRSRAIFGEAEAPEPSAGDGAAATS
Method: bR was extracted from the native purple membrane with 2.0 wt % octyl-β-D-thioglucoside (OTG) (see Bazzacco at al., Biomacromolecules 2009, 10, 3317-3326). Following ultracentrifugation to remove insoluble debris, the bR solution was diluted with amphiphile solutions to give 0.2 wt % OTG+1.6 wt % new agent or DDM. The absorbance of the solutions at 554 nm was measured periodically over 20 days. […] When the assay was conducted at a lower amphiphile concentration, 0.2 wt % OTG+0.8 wt % new agent or DDM, similar results were obtained (FIG. 3).
The procedure for the bR stability assay followed the protocol reported by Bazzacco and coworkers (Biomacromolecules 2009, 10, 3317-3326).
The procedure for the bR stability assay generally followed the reported protocol (Bazzacco et al., Biomacromolecules 2009, 10, 3317-3326). Frozen aliquots of purple membranes containing bR at 184 μM were thawed at room temperature and solubilized by using an octylthioglucoside (OTG) solution for 24 hr at 4° C. in a dark room. For this purpose, OTG (CMC=0.28 wt %) was used at 2.0 wt % in 10 mM sodium phosphate (pH 6.9). Membrane debris was then removed from the solubilized material via ultracentrifugation at 200,000 g at 4° C. for 20 min. The supernatant, including bR protein, was transferred into individual DDM, GLC, or GDN solutions, giving final concentration of OTG: new amphiphiles=0.2 wt %: 0.8 wt % (1:4) or 0.2 wt %:1.6 wt % (1:8). The stability of bR in each solution was monitored by measuring absorbance at 554 nm over 20 days.

T1 sequence (P07550 whole entry): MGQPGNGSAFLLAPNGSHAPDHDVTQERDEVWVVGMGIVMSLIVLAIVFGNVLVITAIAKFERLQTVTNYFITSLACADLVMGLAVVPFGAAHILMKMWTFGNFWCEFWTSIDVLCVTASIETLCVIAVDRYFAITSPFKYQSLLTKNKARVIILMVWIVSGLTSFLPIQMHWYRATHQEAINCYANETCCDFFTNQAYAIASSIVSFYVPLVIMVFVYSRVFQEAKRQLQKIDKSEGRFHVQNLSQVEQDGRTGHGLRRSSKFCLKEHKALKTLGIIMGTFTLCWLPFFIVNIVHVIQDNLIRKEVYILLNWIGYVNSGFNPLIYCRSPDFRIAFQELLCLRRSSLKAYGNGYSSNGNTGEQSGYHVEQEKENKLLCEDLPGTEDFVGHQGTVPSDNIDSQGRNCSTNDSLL

SMILES	β2AR WT initial activity (wild type β2AR (β2AR WT); [3H]-dihydroalprenolol binding)	β2AR WT activity over 72 hours (wild type β2AR (β2AR WT))	Loss in bR protein integrity after 20 days (Bacteriorhodopsin (bR); absorbance at 554 nm)	Maintaining the native structure of bR compared with conventional detergents (Bacteriorhodopsin (bR))	β2AR WT initial activity, increase relative to DDM (wild type β2AR (β2AR WT); [3H]-dihydroalprenolol binding) [fold]
CCCCCCCCCCCCO[C@@H]1O[C@H](CO)[C@@H](O[C@H]2O[C@H](CO)[C@@H](O)[C@H](O)[C@H]2O)[C@H](O)[C@H]1O [DDM, dodecyl-β-D-maltoside, reference compound]	low initial activity	rapidly decomposed			
C[C@@H]1CC[C@@]2(OC1)O[C@H]1C[C@H]3[C@@H]4CC=C5C[C@@H](OCCC(CO[C@@H]6OC(CO)[C@@H](O[C@H]7OC(CO)[C@@H](O)C(O)C7O)C(O)C6O)CO[C@@H]6OC(CO)[C@@H](O[C@H]7OC(CO)[C@@H](O)C(O)C7O)C(O)C6O)CC[C@]5(C)[C@H]4CC[C@]3(C)[C@@H]1[C@@H]2C (some centres unmarked) [GDN, glyco-diosgenin]	high initial activity	did not vary over 72 hours	negligible loss in protein integrity	more effective than conventional detergents OTG and DDM	> 3
CO[C@@H]1CC[C@@]2(C)[C@H](CC[C@@H]3[C@@H]2CC[C@]2(C)[C@@H]([C@H](C)CCCOCC(C)(CO[C@@H]4OC(CO)C(O[C@@H]5OC(CO)[C@@H](O)[C@H](O)C5O)[C@@H](O)C4O)CO[C@@H]4OC(CO)[C@@H](O[C@H]5OC(CO)[C@@H](O)[C@H](O)C5O)[C@H](O)C4O)CC[C@@H]32)C1 (some centres unmarked) [GLC-2]				more effective than conventional detergents OTG and DDM	
